Reference: PMC6787163, “Systematic Dual Targeting of Dendritic Cell C-Type Lectin Receptor DC-SIGN and TLR7 Using a Trifunctional Mannosylated Antigen” (Frontiers in Chemistry, 2019)
Where “and” joins values, the source holds several entries; their conditions need not be identical. Equal entries are not always repeated.

How the values were obtained:
DC-SIGN S-ECD = molecular target: T1, DC-SIGN S-ECD (Homo sapiens, UniProt Q9NNX6); test: SPR direct interaction assay on oriented DC-SIGN S-ECD surface; format: binding; conditions: for Kd: SPR direct interaction, oriented tetrameric DC-SIGN ECD surface, apparent Kd, read-out: Kdapp
T1 construct: The ECD of DC-SIGN (residues 66–404) was overexpressed and purified as previously described; made in house
T1 sequence (Q9NNX6 66-404): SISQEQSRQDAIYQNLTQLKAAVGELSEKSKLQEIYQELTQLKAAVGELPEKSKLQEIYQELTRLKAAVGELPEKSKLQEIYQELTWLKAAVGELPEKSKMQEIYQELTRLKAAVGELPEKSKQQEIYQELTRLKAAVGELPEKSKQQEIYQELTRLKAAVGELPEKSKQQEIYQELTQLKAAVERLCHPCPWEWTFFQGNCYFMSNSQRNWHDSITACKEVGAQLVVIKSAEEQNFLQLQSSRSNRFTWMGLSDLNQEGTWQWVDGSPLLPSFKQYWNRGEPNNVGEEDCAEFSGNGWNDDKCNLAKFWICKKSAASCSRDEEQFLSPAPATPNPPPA
Outline: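 Tetrameric DC-SIGN ECD carrying an N-terminal StrepTagII was captured in oriented form on streptactin (2,500–3,000 RU), with a streptactin-only control cell. Glycoclusters were injected at increasing concentrations (30 μL/min) in Tris pH 8 buffer with 150 mM NaCl and 4 mM CaCl2. Apparent Kd from a 1:1 fit reflects binding to the whole surface.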

DC-SIGN on moDC = test: Binding of biotinylated mannoside library to moDCs by flow cytometry; format: cell-based, human; conditions: 10 μM biotinylated cluster, 30 min at 4°C, streptavidin staining
Protocol: Next, we assessed the binding of our clusters to cellular DC-SIGN using moDCs (Figure 3B, Supplementary Figure 1B). To this end, binding of the clusters a1–a6, b1–b6, c1–c6, d1–d6, and e1–e6, decorated with a biotin handle, was determined by flow cytometry. Clusters were bound to moDCs for 30 min at 4°C. By staining using fluorophore-conjugated streptavidin and washing at 4°C, the bound clusters could be quantified by flow cytometry. […] In control experiments ligand binding to DC-SIGN was inhibited using a blocking anti-DC-SIGN antibody (Supplementary Figure 1C).
Approximately 10^5 day 5 moDCs were washed and resuspended in 100 μL culture medium (pre-cooled to 4°C). 20 μg/mL AZN-D1 (anti-DC-SIGN, in house Geijtenbeek et al., [2002]) or purified mouse anti-human CD206 antibody (Clone 19.2, BD Bioscience) was added to the moDCs and pre-incubated for 45 min on ice. Subsequently, 10 μM of the biotinylated mannoside clusters or 1 μg/mL of Lewis^Y-conjugated polyacrylamide (positive control) was added, and incubated for 30 min at 4°C. Cells were then washed with pre-cooled PBS (4°C), and stained with Alexa647-labeled streptavidin (Invitrogen^TM) in PBS supplemented with 0.5% BSA and 0.02% NaN3 (PBA) for 30 min at 4°C. Upon washing in ice-cold PBA and fixation in PBS with 0.5% PFA, the fluorescence was measured by flow cytometry (CyAn™ ADP with Summit™ Software), and further analyzed using FlowJo v10.

moDCs = test: Internalization of biotinylated hexavalent clusters by moDCs (flow cytometry); format: cell-based, human; conditions: for internalization by moDCs (loss of surface streptavidin signal) / uptake by immature moDCs: 20 μM cluster; for internalization by moDCs (loss of surface streptavidin signal): live moDCs; for internalization by moDCs (pHrodo-avidin fluorescence increase): clusters pre-complexed with pH-sensitive dye
Protocol: For the internalization, the moDCs were incubated with clusters b6, c6, d6, and e6 for 1 h at 4°C, where after unbound ligands were washed away with ice-cold medium. Warm medium was added to the moDCs, and samples were taken at the indicated time points and put on ice. Upon staining the moDCs with fluorophore-conjugated streptavidin, we could measure the signal loss of the membrane via flow cytometry. To exclude ligand-receptor dissociation before internalization, the moDCs were fixed under gentle conditions, hereby inhibiting receptor-mediated endocytosis. On fixed moDCs the clusters remained at the surface, as no signal loss could be detected (Supplementary Figure 1D). […] The di-mannoside clusters (b6, c6, and d6) were internalized relatively fast, with a 50% uptake within 5 min (Figure 5B). The tri-mannoside cluster e6 however remained longer at the membrane surface and only a 25% uptake was seen after 30 min. Similar results were seen using a pH-sensitive fluorophore. In acidic environments, such as the endosomes and lysosomes, the fluorescence of this dye increases. Pre-complexed clusters mirrored the accelerated uptake of the di-mannoside clusters over the e6 cluster (Supplementary Figure 1E). Although the DC-SIGN mediated uptake mechanism is known (Cambi et al., [2009]), the initiation trigger for endocytosis upon DC-SIGN-ligand binding remains unclear. Recognition of the di-mannoside clusters could induce signaling leading to accelerated uptake, whereas the tri-mannoside cluster could trigger a different signaling pathway. Nonetheless, the clusters harboring the smaller mannosides are preferred. Although the binding affinity of the clusters ranged from 0.9 to 6.6 μM, the di-mannosides induce more rapid DC-SIGN internalization over the tri-mannosides, and can thus increase intracellular peptide concentrations more efficiently for further antigen processing and presentation.
Immature day 5 moDCs were harvested and washed with cold HBSS (Thermo Fischer), after which half of the moDCs were gently fixed for 20 min at RT with 1% PFA in PBS. Afterwards, 20 μM of the different biotinylated mannose-clusters in cold HBSS were added. The moDCs were incubated for 1 h on ice, and washed in cold HBSS. Subsequently, warm HBSS was added to the cells, and cells were incubated at 37°C in a shaking heating block. At the indicated time points, a sample of the cells was taken and put on ice. After the last time point, the cells were stained with Streptavidin-Alexa647 (Thermo Fisher), measured using flow cytometry (CyAn™ ADP with Summit™ Software), and further analyzed using FlowJo v10. The same procedure was used for internalization with pHrodo^TM Red Avidin (Thermo Fischer). The different biotinylated mannose-clusters were however incubated with pHrodo-Avidin (ratio 2:1) for 15 min at 37°C, prior to moDC exposure. The fluorescence upon internalization was measured using flow cytometry (BD LSRFortessa™ X-20 with FACSDiva Software), and further analyzed using FlowJo v10.

CC(=O)N[C@@H](CCCCn1cc(CO[C@H]2O[C@H](CO[C@H]3O[C@H](CO)[C@@H](O)[C@H](O)[C@@H]3O)[C@@H](O)[C@H](O[C@H]3O[C@H](CO)[C@@H](O)[C@H](O)[C@@H]3O)[C@@H]2O)nn1)C(=O)N[C@@H](CCCCn1cc(CO[C@H]2O[C@H](CO[C@H]3O[C@H](CO)[C@@H](O)[C@H](O)[C@@H]3O)[C@@H](O)[C@H](O[C@H]3O[C@H](CO)[C@@H](O)[C@H](O)[C@@H]3O)[C@@H]2O)nn1)C(=O)N[C@@H](CCCCn1cc(CO[C@H]2O[C@H](CO[C@H]3O[C@H](CO)[C@@H](O)[C@H](O)[C@@H]3O)[C@@H](O)[C@H](O[C@H]3O[C@H](CO)[C@@H](O)[C@H](O)[C@@H]3O)[C@@H]2O)nn1)C(=O)N[C@@H](CCCCn1cc(CO[C@H]2O[C@H](CO[C@H]3O[C@H](CO)[C@@H](O)[C@H](O)[C@@H]3O)[C@@H](O)[C@H](O[C@H]3O[C@H](CO)[C@@H](O)[C@H](O)[C@@H]3O)[C@@H]2O)nn1)C(=O)N[C@@H](CCCCn1cc(CO[C@H]2O[C@H](CO[C@H]3O[C@H](CO)[C@@H](O)[C@H](O)[C@@H]3O)[C@@H](O)[C@H](O[C@H]3O[C@H](CO)[C@@H](O)[C@H](O)[C@@H]3O)[C@@H]2O)nn1)C(=O)N[C@@H](CCCCn1cc(CO[C@H]2O[C@H](CO[C@H]3O[C@H](CO)[C@@H](O)[C@H](O)[C@@H]3O)[C@@H](O)[C@H](O[C@H]3O[C@H](CO)[C@@H](O)[C@H](O)[C@@H]3O)[C@@H]2O)nn1)C(=O)NCC(=O)N[C@@H](CCCCN)C(N)=O [E6]
binding affinity for DC-SIGN relative to B6 (fold lower) (DC-SIGN S-ECD): 3 fold
Kd (DC-SIGN S-ECD): 2780 nM and 2700 nM
binding to DC-SIGN on moDC (DC-SIGN on moDC): did not observe an increase in binding
internalization by moDCs (loss of surface streptavidin signal) (moDCs): remains longer at the surface
uptake by immature moDCs (moDCs; after 30 min at 37°C): 25%
internalization by moDCs (pHrodo-avidin fluorescence increase) (moDCs): endocytosed at lower rate

CC(=O)N[C@@H](CCCCn1cc(CO[C@H]2O[C@H](CO[C@H]3O[C@H](CO)[C@@H](O)[C@H](O)[C@@H]3O)[C@@H](O)[C@H](O)[C@@H]2O)nn1)C(=O)N[C@@H](CCCCn1cc(CO[C@H]2O[C@H](CO[C@H]3O[C@H](CO)[C@@H](O)[C@H](O)[C@@H]3O)[C@@H](O)[C@H](O)[C@@H]2O)nn1)C(=O)N[C@@H](CCCCn1cc(CO[C@H]2O[C@H](CO[C@H]3O[C@H](CO)[C@@H](O)[C@H](O)[C@@H]3O)[C@@H](O)[C@H](O)[C@@H]2O)nn1)C(=O)N[C@@H](CCCCn1cc(CO[C@H]2O[C@H](CO[C@H]3O[C@H](CO)[C@@H](O)[C@H](O)[C@@H]3O)[C@@H](O)[C@H](O)[C@@H]2O)nn1)C(=O)N[C@@H](CCCCn1cc(CO[C@H]2O[C@H](CO[C@H]3O[C@H](CO)[C@@H](O)[C@H](O)[C@@H]3O)[C@@H](O)[C@H](O)[C@@H]2O)nn1)C(=O)N[C@@H](CCCCn1cc(CO[C@H]2O[C@H](CO[C@H]3O[C@H](CO)[C@@H](O)[C@H](O)[C@@H]3O)[C@@H](O)[C@H](O)[C@@H]2O)nn1)C(=O)NCC(=O)N[C@@H](CCCCN)C(N)=O [D6]
Kd (DC-SIGN S-ECD): 6560 ± 1200 nM
binding to DC-SIGN on moDC (DC-SIGN on moDC): no increase in binding
internalization by moDCs (loss of surface streptavidin signal) (moDCs): rapidly internalized
internalization by moDCs (pHrodo-avidin fluorescence increase) (moDCs): internalized rapidly
uptake by immature moDCs (moDCs; within 5 min at 37°C): 50%
